The test system of one experiment is RAW264.7. In words: Inhibition of LPS-induced NO production in mouse RAW264.7 cells incubated for 18 hrs by Griess reagent based assay. It counts as functional, cell-based. The conditions noted are these: RAW264.7, 18 h. In general terms: The Griess reaction detects nitrite, a stable product of nitric oxide.
The subject of the next experiment is SW480. In words: Cytotoxicity against human SW480 cells assessed as reduction in cell viability. It counts as functional, cell-based.
For the next experiment, the system named is Staphylococcus aureus. Put plainly: Antibacterial activity against Staphylococcus aureus assessed as inhibition of growth at 100 uM after 24 hrs. It counts as functional, organism-based.
The nature of experiment [1]: Cytotoxicity against human multidrug-resistant A549/Taxol cells assessed as reduction in cell viability. It counts as functional, cell-based.
In the next experiment the test system is Candida albicans. In words: Antifungal activity against fluconazole resistant Candida albicans kzs01 assessed as inhibition of growth at 100 uM after 24 hrs. It counts as functional, organism-based.
A further experiment relates to HL-60. In words: Cytotoxicity against human HL-60 cells assessed as reduction in cell viability. It counts as functional, cell-based.
Another experiment deals with SMMC-7721. In words: Cytotoxicity against human SMMC-7721 cells assessed as reduction in cell viability. It counts as functional, cell-based.
The next experiment deals with MCF7. Put plainly: Cytotoxicity against human MCF7 cells assessed as reduction in cell viability. It counts as functional, cell-based.
The test system of a further experiment is A549. Put plainly: Cytotoxicity against human A549 cells assessed as reduction in cell viability. It counts as functional, cell-based.

Calls of active or inactive are those of the source. No cut-off for these calls is given here. A value given as a limit tells only on which side of the number the result lay.

Broadly, the IC50 is the concentration that inhibits the measured activity by half.

For the compound `CNC(=N)NCCC[C@H](N)C(=O)O` [TILARGININE ACETATE], the IC50 in the experiment with RAW264.7 worked out at 47.2 µM.
Consider `COC[C@H]1C(=O)[C@@]23[C@H]4OC5O[C@@]2(O)[C@@H](O)[C@@H]2C(C)(C)CCC[C@]52[C@@H]3[C@@H](OC(C)=O)C[C@@H]14`, for which the IC50 with SW480 was more than 10 µM; in the experiment on RAW264.7 it was 29.4 µM; in [1], more than 10 µM; in the experiment with HL-60, more than 10 µM; with SMMC-7721, more than 10 µM; in the experiment with MCF7 it was more than 10 µM. Also, the IC50 in the experiment with A549 was more than 10 µM. The inhibition result in the experiment with Staphylococcus aureus and with Candida albicans was “inactive” in each case.
On to `CC(=O)O[C@H]1C[C@@H]2[C@@H]3OC4O[C@@]5(O)[C@@H](O)[C@@H]6C(C)(C)CCC[C@]46[C@H]1[C@]35C(=O)[C@]21CCC2=C(O1)[C@@]13[C@H]4OC5O[C@@]1(O)[C@@H](O)[C@@H]1C(C)(C)CCC[C@]51[C@@H]3CC[C@@H]24`, for which the half-maximal inhibitory concentration (IC50) (in the experiment on SW480; in [1]; in the experiment on HL-60; in the experiment with SMMC-7721; in the experiment with MCF7; in the experiment with A549) was more than 10 µM each time. Further, the inhibition result in the experiment on Staphylococcus aureus and in the experiment with Candida albicans was “inactive” each time.
`COC[C@@H]1C(=O)[C@]23[C@H](O)[C@H]1CC[C@H]2C12CCCC(C)(C)[C@H]1C(=O)[C@]3(O)[C@@H]2O`: the IC50 (in the experiment on SW480; in experiment [1]; with HL-60; with SMMC-7721; in the experiment with MCF7; with A549) was more than 10 µM throughout. Further, the inhibition result in the experiment with Staphylococcus aureus and with Candida albicans was “inactive” in each case.
Regarding `COC[C@@]1(C[C@H]2C(=O)[C@@]34[C@H]5OC6O[C@@]3(O)[C@@H](O)[C@@H]3C(C)(C)CCC[C@]63[C@@H]4CC[C@@H]25)C(=O)[C@@]23[C@H]4OC5O[C@@]2(O)[C@@H](O)[C@@H]2C(C)(C)CCC[C@]52[C@@H]3[C@@H](OC(C)=O)C[C@H]41`, the IC50 in the experiment with SW480 was more than 10 µM; with RAW264.7, 11.1 µM; in [1] it was more than 10 µM; in the experiment on HL-60 it was more than 10 µM; in the experiment on SMMC-7721 it was more than 10 µM; in the experiment with MCF7 it was more than 10 µM. For the same compound, the IC50 in the experiment with A549 is more than 10 µM. Also, the inhibition entry in the experiment with Staphylococcus aureus and with Candida albicans was “inactive” each time.
Turning to `COC[C@@H]1C(=O)[C@@]23[C@H]4OC5O[C@@]2(O)[C@@H](O)[C@@H]2C(C)(C)CCC[C@]52[C@@H]3[C@@H](OC(C)=O)C[C@@H]14`, the IC50 (in the experiment with SW480; in experiment [1]; in the experiment with HL-60; in the experiment on SMMC-7721; with MCF7; in the experiment on A549) was more than 10 µM throughout. Besides, the inhibition result in the experiment with Staphylococcus aureus and in the experiment with Candida albicans was “inactive” in each case.
On to `COC[C@@]1(C[C@H]2C(=O)[C@@]34[C@H]5OC6O[C@@]3(O)[C@@H](O)[C@@H]3C(C)(C)CCC[C@]63[C@@H]4[C@@H](OC(C)=O)C[C@@H]25)C(=O)[C@]23[C@H](O)[C@@]4(O)OC5O[C@H]2[C@H]1C[C@H](OC(C)=O)[C@H]3[C@@]51CCCC(C)(C)[C@@H]41` (stereo partly drawn), for which the IC50 was more than 10 µM in the experiment on SW480; 42.2 µM in the experiment on RAW264.7; more than 10 µM in [1]; more than 10 µM in the experiment on HL-60; more than 10 µM with SMMC-7721; more than 10 µM in the experiment on MCF7. The IC50 in the experiment with A549 was more than 10 µM. The inhibition result with Staphylococcus aureus and in the experiment on Candida albicans was “inactive” each time.
In the case of `COC(=O)CCCCCC/C=C(/C=O)C[C@H]1C(=O)[C@@]23[C@H]4OC5O[C@@]2(O)[C@@H](O)[C@@H]2C(C)(C)CCC[C@]52[C@@H]3[C@@H](OC(C)=O)C[C@@H]14`, the IC50 (with SW480; in experiment [1]; in the experiment on HL-60; in the experiment with SMMC-7721; in the experiment on MCF7; in the experiment on A549) was more than 10 µM in each case. Besides, the inhibition result with Staphylococcus aureus and in the experiment on Candida albicans was “inactive” each time.
Turning to `CC(=O)O[C@H]1C[C@@H]2[C@@H]3OC4O[C@@]5(O)[C@@H](O)[C@@H]6C(C)(C)CCC[C@]46[C@H]1[C@]35C(=O)[C@]21CO1`, the IC50 (with SW480; in experiment [1]; in the experiment with HL-60; in the experiment on SMMC-7721; in the experiment with MCF7; with A549) was more than 10 µM in each case. Besides, the inhibition result in the experiment with Staphylococcus aureus and in the experiment on Candida albicans was “inactive” in each case.

The record behind these values is ChEMBL document CHEMBL4673369, “ent-Kaurane-Based Diterpenoids, Dimers, and Meroditerpenoids from Isodon xerophilus” (J Nat Prod, 2020).
